In patent US11401555B2, “Genetic polymorphisms associated with stroke, methods of detection and uses thereof” (CELERA CORPORATION, priority 2008, dated 2022):

Assay: Stroke statin response (SSR) in the PROSPER pravastatin trial: pravastatin-treated versus placebo-treated, by SNP genotype
Type: in vivo, human
From the text: (hCV26505812) for association with SSR in CARE (Table 37) and PROSPER (Table 38), including both unadjusted and adjusted analyses (adjusted for factors such as age, gender, smoking status, hypertension, diabetes, BMI, and LDL and HDL levels). Table 37 provides results in CARE, and Table 38 provides results in PROSPER (whether each analysis is unadjusted or adjusted is indicated in the “adjust” column in Table 37, or by “unadj” and “adj” column labels in Tables 38). With respect to Tables 22-32 and 37-38, the columns labeled “Genotype” (in Tables 22-28 and 37), “Geno_Placebo” (in Tables 29-30 and 38), and “Geno_Resp” (in Tables 31-32 and 38) indicate the genotype which the given stroke risk or SSR results correspond to. […] In Tables 29-32 and 38, the columns labeled “LOWER_PLACEBO” and “UPPER_PLACEBO” (Tables 29-30 and 38), and “LOWER_RESP” and “UPPER_RESP” (Tables 31-32 and 38), refer to the lower and upper 95% confidence intervals for the hazard ratios. See Example Six below for further information relating to Tables 22-32 and 37-38. […] As used herein, the term “benefit” (with respect to a preventive or therapeutic drug treatment) is defined as achieving a reduced risk for a disease that the drug is intended to treat or prevent (e.g., stroke) by administrating the drug treatment, compared with the risk for the disease in the absence of receiving the drug treatment (or receiving a placebo in lieu of the drug treatment) for the same genotype. The term “benefit” may be used herein interchangeably with terms such as “respond positively” or “positively respond”. For stroke risk and statin response associations based on samples from the CARE and PROSPER trials described herein, stroke risk is assessed by comparing the risk of stroke for a given genotype with the risk of stroke for a reference genotype either in the placebo arm of the trial or in the whole study population of the trial, and statin response is assessed by comparing the risk of stroke in the pravastatin arm of the trial with the risk of stroke in the placebo arm of the trial for the same genotype. […] Example Five above describes the analysis of these 61 SNPs plus 17 additional SNPs in the German West Study. […] In PROSPER, SNPs were analyzed for association with stroke risk or SSR, in the whole study cohort (strata: “ALL”), or in the subgroup with a history of CVD (strata: “hist”) or without a CVD history (strata: “no hist”). […] Also in the CARE and PROSPER trials, the chromosome 9p21 SNP […] (hCV26505812) was analyzed further for association with SSR, including unadjusted and adjusted analysis. Adjusted analysis in CARE (Table 37) was adjusted for age, gender, smoking status, hypertension, diabetes, body mass index (BMI), and LDL and HDL levels, and adjusted analysis in PROSPER (Table 38) was adjusted for country, gender, age, LDL, HDL, smoking status (current vs. past or never), history of hypertension, and diabetes. Table 37 provides results in CARE, and Table 38 provides results in PROSPER (whether each analysis is unadjusted or adjusted is indicated in the “adjust” column in Table 37, or by “unadj” and “adj” column labels in Tables 38). All the p-values (including Pint values) provided in Tables 37-38 are two-sided p-values.

[1] = hCV2169762 rs1804689 HPS1, GENO_RESP GG, MODE GEN, STRATA no hist
[2] = hCV2169762 rs1804689 HPS1, GENO_RESP GT, MODE GEN, STRATA hist
[3] = hCV2169762 rs1804689 HPS1, GENO_RESP GT, MODE GEN, STRATA no hist
[4] = hCV2169762 rs1804689 HPS1, GENO_RESP TT, MODE GEN, STRATA no hist
[5] = hCV2442143 rs12544854 ASAH1, GENO_RESP CC + CT, MODE REC, STRATA no hist
[6] = hCV2442143 rs12544854 ASAH1, GENO_RESP TT + CT, MODE DOM, STRATA hist
[7] = hCV26505812 rs10757274 C9p21, GENO_RESP AA, MODE GEN, STRATA ALL
[8] = hCV26505812 rs10757274 C9p21, GENO_RESP AA, MODE GEN, STRATA no hist
[9] = hCV26505812 rs10757274 C9p21, GENO_RESP AG, MODE GEN, STRATA ALL
[10] = hCV26505812 rs10757274 C9p21, GENO_RESP AG, MODE GEN, STRATA no hist
[11] = hCV26505812 rs10757274 C9p21, GENO_RESP GG + AG, MODE DOM, STRATA ALL
[12] = hCV26505812 rs10757274 C9p21, GENO_RESP GG + AG, MODE DOM, STRATA no hist
[13] = hCV26505812 rs10757274 C9p21, GENO_RESP GG, MODE GEN, STRATA ALL
[14] = hCV26505812 rs10757274 C9p21, GENO_RESP GG, MODE GEN, STRATA no hist
[15] = hCV27511436 rs3750145 FZD1, GENO_RESP CC + CT, MODE DOM, STRATA no hist
[16] = hCV27511436 rs3750145 FZD1, GENO_RESP CC, MODE GEN, STRATA no hist
[17] = hCV27511436 rs3750145 FZD1, GENO_RESP CT, MODE GEN, STRATA no hist
[18] = hCV27511436 rs3750145 FZD1, GENO_RESP TT, MODE GEN, STRATA no hist
[19] = hCV27830265 rs12762303 ALOX5, GENO_RESP GG + AG, MODE DOM, STRATA no hist
[20] = hCV29539757 rs10110659 KCNQ3, GENO_RESP AA, MODE GEN, STRATA hist
[21] = hCV29539757 rs10110659 KCNQ3, GENO_RESP AC, MODE GEN, STRATA hist
[22] = hCV29539757 rs10110659 KCNQ3, GENO_RESP CC, MODE GEN, STRATA hist

Question: For `CC[C@H](C)C(=O)O[C@H]1C[C@H](O)C=C2C=C[C@H](C)[C@H](CC[C@@H](O)C[C@@H](O)CC(=O)O)[C@H]21` [pravastatin], which “HR_RESP (hazard ratio, pravastatin-treated versus placebo-treated)” value (hCV2169762 rs1804689 HPS1, GENO_RESP GG, MODE GEN, STRATA hist) is on record?
Answer: 1.104

Question: And the EVENTS_RESP [1]?
Answer: 30

Question: And the “HR_RESP (hazard ratio, pravastatin-treated versus placebo-treated)” value [1]?
Answer: 0.659

Question: What about the EVENTS_RESP [2] of the same compound?
Answer: 47

Question: What about the “HR_RESP (hazard ratio, pravastatin-treated versus placebo-treated)” value [2] of the same compound?
Answer: 0.9425

Question: What about the EVENTS_RESP [3] of the same compound?
Answer: 47

Question: And the “HR_RESP (hazard ratio, pravastatin-treated versus placebo-treated)” value [3]?
Answer: 1.268

Question: And the EVENTS_RESP (hCV2169762 rs1804689 HPS1, GENO_RESP TT + GT, MODE DOM, STRATA no hist)?
Answer: 57

Question: What about the “HR_RESP (hazard ratio, pravastatin-treated versus placebo-treated)” value (hCV2169762 rs1804689 HPS1, GENO_RESP TT, MODE GEN, STRATA hist) of the same compound?
Answer: 0.3365

Question: And the EVENTS_RESP [4]?
Answer: 10

Question: What about the “HR_RESP (hazard ratio, pravastatin-treated versus placebo-treated)” value [4] of the same compound?
Answer: 1.275

Question: What about the EVENTS_RESP [5] of the same compound?
Answer: 72

Question: And the “HR_RESP (hazard ratio, pravastatin-treated versus placebo-treated)” value [5]?
Answer: 1.087

Question: What about the EVENTS_RESP [6] of the same compound?
Answer: 88

Question: What about the “HR_RESP (hazard ratio, pravastatin-treated versus placebo-treated)” value [6] of the same compound?
Answer: 1.043

Question: And the EVENTS_RESP [7]?
Answer: 56

Question: And the “HR_RESP (hazard ratio, pravastatin-treated versus placebo-treated)” value [7]?
Answer: 1.33

Question: And the EVENTS_RESP [8]?
Answer: 28

Question: And the “HR_RESP (hazard ratio, pravastatin-treated versus placebo-treated)” value [8]?
Answer: 1.57

Question: What about the EVENTS_RESP [9] of the same compound?
Answer: 94

Question: And the “HR_RESP (hazard ratio, pravastatin-treated versus placebo-treated)” value [9]?
Answer: 0.7769

Question: What about the EVENTS_RESP [10] of the same compound?
Answer: 35

Question: What about the “HR_RESP (hazard ratio, pravastatin-treated versus placebo-treated)” value [10] of the same compound?
Answer: 0.6977

Question: And the EVENTS_RESP [11]?
Answer: 145

Question: What about the “HR_RESP (hazard ratio, pravastatin-treated versus placebo-treated)” value [11] of the same compound?
Answer: 0.8638

Question: And the EVENTS_RESP [12]?
Answer: 59

Question: What about the “HR_RESP (hazard ratio, pravastatin-treated versus placebo-treated)” value [12] of the same compound?
Answer: 0.8132

Question: What about the EVENTS_RESP [13] of the same compound?
Answer: 51

Question: What about the “HR_RESP (hazard ratio, pravastatin-treated versus placebo-treated)” value [13] of the same compound?
Answer: 1.082

Question: What about the EVENTS_RESP [14] of the same compound?
Answer: 24

Question: And the “HR_RESP (hazard ratio, pravastatin-treated versus placebo-treated)” value [14]?
Answer: 1.068

Question: What about the EVENTS_RESP [15] of the same compound?
Answer: 27

Question: What about the “HR_RESP (hazard ratio, pravastatin-treated versus placebo-treated)” value [15] of the same compound?
Answer: 1.388

Question: What about the EVENTS_RESP [16] of the same compound?
Answer: 1

Question: What about the “HR_RESP (hazard ratio, pravastatin-treated versus placebo-treated)” value [16] of the same compound?
Answer: 0.3492

Question: And the EVENTS_RESP [17]?
Answer: 26

Question: What about the “HR_RESP (hazard ratio, pravastatin-treated versus placebo-treated)” value [17] of the same compound?
Answer: 1.575

Question: What about the EVENTS_RESP [18] of the same compound?
Answer: 60

Question: What about the “HR_RESP (hazard ratio, pravastatin-treated versus placebo-treated)” value [18] of the same compound?
Answer: 0.8524

Question: And the EVENTS_RESP [19]?
Answer: 25

Question: What about the “HR_RESP (hazard ratio, pravastatin-treated versus placebo-treated)” value [19] of the same compound?
Answer: 1.479

Question: What about the EVENTS_RESP [20] of the same compound?
Answer: 7

Question: And the “HR_RESP (hazard ratio, pravastatin-treated versus placebo-treated)” value [20]?
Answer: 0.4115

Question: What about the EVENTS_RESP [21] of the same compound?
Answer: 44

Question: And the “HR_RESP (hazard ratio, pravastatin-treated versus placebo-treated)” value [21]?
Answer: 0.9946

Question: And the EVENTS_RESP (hCV29539757 rs10110659 KCNQ3, GENO_RESP CC + AC, MODE REC, STRATA hist)?
Answer: 106

Question: And the EVENTS_RESP [22]?
Answer: 62

Question: And the “HR_RESP (hazard ratio, pravastatin-treated versus placebo-treated)” value [22]?
Answer: 1.016
